Measured values: patent US8575111B2, “Pharmaceutical compositions and methods for treating erectile dysfunction” (Universidade Federal de Minas Garais-UFMG, priority 2007, dated 2013)

Columns and labels:
erectile dysfunction = settings: men with erectile dysfunction; cited from earlier work
[1] = Absorption and biological stability after gavage in Wistar rats; type: in vivo, rat; settings: Ang-(1-7) peptide alone, gavage 100 μg/50 μl
Description: Assays for determining absorption and biological stability of the Ang-(1-7)/HPβ-CD inclusion complex were made in aqueous solution. Twelve normal Wistar rats properly prepared were used to carry out the experiments. The animals were divided in 3 experimental groups and subjected to a gavage procedure with a salt solution (0.9%/50 μl) of Ang-(1-7) (100 μg/50 μl) and Ang-(1-7)/HPβ-CD (100 μg/50 μl). Four blood samples (1 ml, each) from the animals were collected. The first collection occurred before gavage procedure, and the remaining three 2, 6 and 24 hours post gavage.

erectile function of SHR = experiment: Erectile function (CCP/MAP) of SHR chronically treated orally; type: in vivo, rat; settings: chronic oral treatment, drug alone, 1.5 V
Description: Eight weeks post-treatment with Ang-(1-7)/HPβ-CD Inclusion Complex and/or Atenolol, the erectile function of the animals (SHR, spontaneously hypertensive rats) was evaluated. Particularly, erectile function of animals chronically treated with Atenolol was evaluated after concurrent administration with Ang-(1-7)/HPβ-CD Inclusion Complex. The drugs were orally administered via solutions containing them, alone or in combination. As a control, a group of animals was treated with HPβ-CD.
The procedure for inducing erection and intracavernosal pressure measurement was made as previously described (see, T. M. Mills, R. W. Lewis, V. S. Stopper, Biol Reprod 59, 1413 (December, 1998). Firstly, the animals (SHR) were anesthetized with intraperitoneal urethane (140 mg/kg) and placed on a thermal plate to maintain body temperature at 37° C. A polyethylene cannule was introduced into the animal trachea to keep respiratory patency. Following, the rat left femoral artery was cannulated with a polyethylene tube (PE-50) with heparinized saline (200 U/ml) for continuous monitoring of mean arterial pressure (MAP). The catheter was connected to a pressure transducer. The penial erection was obtained by applying electric stimulation on the major pelvic ganglion (MPG). […]

[2] = tested on: rat ganglionic-stimulated erectile response; experiment: Ganglionic-stimulated changes in CCP/MAP after intracavernosal drug administration in anesthetized rats; type: in vivo
Description: Normotensive and DOCA-salt hypertensive rats, Mas−/− and WT mice were anesthetized with intraperitoneal urethane (140 mg/Kg). The rat left femoral artery and mice […] was cannulated for continuous monitoring of mean arterial pressure (MAP). The shaft of the penis was freed of skin and fascia, and the right corpus cavernosum was cannulated by insertion of a 30-gauge needle connected to a pressure transducer, permitting continuous monitoring of corpus cavernosum pressure (CCP) as described elsewhere (see, e.g., T. M. Mills, et al., Biol Reprod 59, 1413 (December, 1998)). The rat left corpus cavernosum was cannulated with 30-gauge needles attached to 10-μL syringes via short lengths of polyethylene (PE)-10 tubing and used for administration of vasoactive drugs. The abdominal cavity was opened, exposing the right major pelvic ganglion (MPG), and silver bipolar electrodes were positioned on it. […]
In order to evaluate the role of the Ang-(1-7) released endogenously, it was first determined the minimal stimuli in which the maximal value of the CCP/MAP was achieved. […]
To evaluate the effect of Ang-(1-7) on ganglionic-stimulated CCP/MAP rise in the presence of NOS inhibition, a sub-maximal stimulus was determined and applied to the MPG. […] Thereafter, Ang-(1-7) was administered and sub-maximal stimulus was applied while CCP/MAP was continuously recorded.

AT1 = target: T1, AT1 (Homo sapiens, UniProt P30556); settings: receptor AT1; cited from earlier work
T1 sequence (P30556 1-359): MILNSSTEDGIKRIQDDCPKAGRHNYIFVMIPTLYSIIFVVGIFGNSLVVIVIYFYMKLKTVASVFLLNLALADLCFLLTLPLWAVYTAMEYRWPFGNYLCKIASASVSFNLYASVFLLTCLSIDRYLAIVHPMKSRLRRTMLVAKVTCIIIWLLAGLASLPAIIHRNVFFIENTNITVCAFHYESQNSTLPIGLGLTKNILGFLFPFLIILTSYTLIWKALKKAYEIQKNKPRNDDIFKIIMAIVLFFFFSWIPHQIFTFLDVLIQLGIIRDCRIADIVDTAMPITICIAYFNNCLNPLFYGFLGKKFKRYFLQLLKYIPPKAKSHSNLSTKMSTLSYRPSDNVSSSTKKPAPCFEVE

Compound: CCCCC[C@H](O)/C=C/[C@H]1[C@H](O)CC(=O)[C@@H]1CCCCCCC(=O)O [ALPROSTADIL®]
- patients in whom the treatment is effective (erectile dysfunction): over 80%

Compound: CC[C@H](C)[C@H](NC(=O)[C@H](Cc1ccc(O)cc1)NC(=O)[C@@H](NC(=O)[C@H](CCCNC(=N)N)NC(=O)[C@@H](N)CC(=O)O)C(C)C)C(=O)N[C@@H](Cc1c[nH]cn1)C(=O)N1CCC[C@H]1C(=O)O [Ang-(1-7), Asp-Arg-Val-Tyr-Ile-His-Pro]
- increase of plasmatic peptide concentration relative to Ang-(1-7)/HPβ-CD [1]: about 8 fold lower

Compound: CC(C)NCC(O)COc1ccc(CC(N)=O)cc1 (stereo not drawn) [Atenolol, atenolol]
- effect on intracavernosal pressure rise induced by stimulation of the major pelvic ganglion (erectile function of SHR): reduced

Compound: COC(=O)[C@@H](N)CCCNC(=N)N[N+](=O)[O-] [L-NAME, Nw-nitro-L-arginine methyl ester]
- CCP/MAP induced by submaximal stimulus ([2]; L-NAME 200 μg/Kg intracavernosal, mean±s.e.m., n=6, control 0.57±0.06, P<0.05): 0.38±0.05
- effect on baseline CCP or MAP ([2]; administration into left cavernosal sinuses): did not alter

Compound: Des-Asp1-Ang I: angiotensin listed in Table 1, acting on AT1 (RVYIHPFHL; Angiotensin-1; UniProt P01019 26-34, looked up, fragment)
- Actions (AT1): Inhibition of Ang II-induced cell
